Where two headings read alike, the source gives them in different places.
Key:
red rice (Oryza sativa) [1] = assay: Pre-emergent evaluation on dryland rice, red rice control; format: in vivo; conditions: for Percent red rice control: PRE, direct-seeded dryland rice
Source text: (§1) Rice (Oryza sativa) was planted in 6″ by 10″ fiber flats filled with sterile top soil. Five rows were made in each flat and the three rice varieties (′Cybonee, ‘Jupiter’, and ‘Taggart’) were planted in the center 3 rows and a row of red rice (Oryza sativa) was planted on either end of the flat. The flats were watered after planting. After application flats were placed in the greenhouse and lightly watered. […] The flats were moved to a greenhouse and watered and fertilized routinely. Studies were conducted using randomized complete block design with four replications. In both studies, visual percent red rice control and rice injury were recorded at 14, 21, and 28 days after treatment (DAT), using a scale of 0 (no control/injury) to 100 (complete plant death).

[2] = test system: Rice (Oryza sativa) 'Jupiter'; conditions: PRE, direct-seeded dryland rice
Source text: as §1

red rice (Oryza sativa) [3] = assay: Pre-emergent evaluation on flooded rice, red rice control; format: in vivo; conditions: PRE, direct-seeded flooded rice
Procedure: Rice (Oryza sativa) crop varieties (‘Cybonee’, ‘Jupiter’, and ‘Taggart’) and red rice (Oryza sativa) were planted in 6 inch plastic pots containing sterile top soil. Eight to ten seeds of each species were seeded at 12 o'clock, 3 o'clock, 6 o'clock or 9 o'clock around the pot. The pots were watered after planting. […] The test solutions were applied using a compressed air track spray chamber at 30 gallons per acre using a Teejet 8001E nozzle at 40 PSI, three replicates per test rate. After treatment, the pots were watered lightly and transferred to trays in a greenhouse. After the plants were two inches in height the trays were flooded with water and maintained as such for 14 days. The trays were emptied of water and the pots were maintained by regular watering for 4 more days. At 14, 21 and 28 days after treatment (DAT) the plants were evaluated versus untreated control pots containing the same rice and weeds using a scale of 0% (no control) to 100% (complete plant death).

[4] = test system: Benghal dayflower (Commelina benghalensis); assay: Pre-emergent weed control in direct-seeded flooded rice (Example 2); format: in vivo; conditions: 28 Days After Treatment
Source text: (§2) Seeds of crops, rice (Taggart and Wells varieties) and weeds, yellow nutsedge (Cyperus esculentus), barnyardgrass (Echinochloa crus-galli), large crabgrass (Digitaria sanguinalis), hemp sesbania (Sesbania herbacea), Benghal dayflower (Commelina benghalensis), red rice (Oryza sativa) and broadleaf signalgrass (Urochloa platyphylla) were planted in two gallon pots containing top soil. Each pot was watered well before the application of mesotrione (Callisto® Herbicide from Syngenta Crop Protection).

[5] = test system: barnyardgrass (Echinochloa crus-galli); assay: as above; format: in vivo; conditions: 28 Days After Treatment
Source text: as §2

[6] = test system: large crabgrass (Digitaria sanguinalis); assay: as above; format: in vivo; conditions: 28 Days After Treatment
Source text: as §2

[7] = test system: broadleaf signalgrass (Urochloa platyphylla); assay: as above; format: in vivo; conditions: 28 Days After Treatment
Source text: as §2

red rice (Oryza sativa) [8] = assay: as above; format: in vivo; conditions: for % weed control Red Rice: pre-emergent, flooded, 28 Days After Treatment
Source text: as §2

[9] = test system: yellow nutsedge (Cyperus esculentus); assay: as above; format: in vivo; conditions: for % weed control Nutsedge: pre-emergent, flooded, 28 Days After Treatment
Source text: as §2

[10] = pre-emergent treatment at 50 g ai/ha, flooded rice test

Compound: CS(=O)(=O)c1ccc(C(=O)C2C(=O)CCCC2=O)c([N+](=O)[O-])c1 [Mesotrione, mesotrione]
- Percent red rice control (red rice (Oryza sativa) [1]; 14 DAT, 12.5 g ai/ha): 33 D %
- Percent red rice control (red rice (Oryza sativa) [1]; 14 DAT, 25 g ai/ha): 70 B %
- Percent red rice control (red rice (Oryza sativa) [1]; 14 DAT, 37.5 g ai/ha): 74 B %
- Percent red rice control (red rice (Oryza sativa) [1]; 14 DAT, 50 g ai/ha): 79 A %
- Percent red rice control (red rice (Oryza sativa) [1]; 14 DAT, 62.5 g ai/ha): 80 A %
- Percent red rice control (red rice (Oryza sativa) [1]; 14 DAT, 75 g ai/ha): 80 A %
- Percent red rice control (red rice (Oryza sativa) [1]; 14 DAT, 87.5 g ai/ha): 80 A %
- Percent red rice control (red rice (Oryza sativa) [1]; 14 DAT, 100 g ai/ha): 80 A %
- Percent red rice control (red rice (Oryza sativa) [1]; 21 DAT, 12.5 g ai/ha): 60 C %
- Percent red rice control (red rice (Oryza sativa) [1]; 21 DAT, 25 g ai/ha): 81 B %
- Percent red rice control (red rice (Oryza sativa) [1]; 21 DAT, 37.5 g ai/ha): 84 AB %
- Percent red rice control (red rice (Oryza sativa) [1]; 21 DAT, 50 g ai/ha): 86 AB %
- Percent red rice control (red rice (Oryza sativa) [1]; 21 DAT, 62.5 g ai/ha): 89 AB %
- Percent red rice control (red rice (Oryza sativa) [1]; 21 DAT, 75 g ai/ha): 90 A %
- Percent red rice control (red rice (Oryza sativa) [1]; 21 DAT, 87.5 g ai/ha): 90 A %
- Percent red rice control (red rice (Oryza sativa) [1]; 21 DAT, 100 g ai/ha): 90 A %
- Percent red rice control (red rice (Oryza sativa) [1]; 28 DAT, 12.5 g ai/ha): 62 B %
- Percent red rice control (red rice (Oryza sativa) [1]; 28 DAT, 25 g ai/ha): 89 A %
- Percent red rice control (red rice (Oryza sativa) [1]; 28 DAT, 37.5 g ai/ha): 88 A %
- Percent red rice control (red rice (Oryza sativa) [1]; 28 DAT, 50 g ai/ha): 91 A %
- Percent red rice control (red rice (Oryza sativa) [1]; 28 DAT, 62.5 g ai/ha): 92 A %
- Percent red rice control (red rice (Oryza sativa) [1]; 28 DAT, 75 g ai/ha): 92 A %
- Percent red rice control (red rice (Oryza sativa) [1]; 28 DAT, 87.5 g ai/ha): 95 A %
- Percent red rice control (red rice (Oryza sativa) [1]; 28 DAT, 100 g ai/ha): 93 A %
- red rice control (words, FIG. 3) (red rice (Oryza sativa) [1]; pre-emergent treatment at 25 g ai/ha, direct seeded dryland rice test): controlled
- Percent rice injury Jupiter ([2]; 14 DAT, 12.5 g ai/ha): 0 E %
- Percent rice injury Jupiter ([2]; 14 DAT, 25 g ai/ha): 0 E %
- Percent rice injury Jupiter ([2]; 14 DAT, 37.5 g ai/ha): 2 DE %
- Percent rice injury Jupiter ([2]; 14 DAT, 50 g ai/ha): 3 DE %
- Percent rice injury Jupiter ([2]; 14 DAT, 62.5 g ai/ha): 5 CD %
- Percent rice injury Jupiter ([2]; 14 DAT, 75 g ai/ha): 8 BC %
- Percent rice injury Jupiter ([2]; 14 DAT, 87.5 g ai/ha): 10 BC %
- Percent rice injury Jupiter ([2]; 14 DAT, 100 g ai/ha): 11 B %
- Percent rice injury Jupiter ([2]; 21 DAT, 12.5 g ai/ha): 0 E %
- Percent rice injury Jupiter ([2]; 21 DAT, 25 g ai/ha): 0 E %
- Percent rice injury Jupiter ([2]; 21 DAT, 37.5 g ai/ha): 2 DE %
- Percent rice injury Jupiter ([2]; 21 DAT, 50 g ai/ha): 6 CDS %
- Percent rice injury Jupiter ([2]; 21 DAT, 62.5 g ai/ha): 7 CD %
- Percent rice injury Jupiter ([2]; 21 DAT, 75 g ai/ha): 10 BC %
- Percent rice injury Jupiter ([2]; 21 DAT, 87.5 g ai/ha): 11 BC %
- Percent rice injury Jupiter ([2]; 21 DAT, 100 g ai/ha): 14 B %
- Percent rice injury Jupiter ([2]; 28 DAT, 12.5 g ai/ha): 0 D %
- Percent rice injury Jupiter ([2]; 28 DAT, 25 g ai/ha): 0 D %
- Percent rice injury Jupiter ([2]; 28 DAT, 37.5 g ai/ha): 1 D %
- Percent rice injury Jupiter ([2]; 28 DAT, 50 g ai/ha): 6 CD %
- Percent rice injury Jupiter ([2]; 28 DAT, 62.5 g ai/ha): 8 CD %
- Percent rice injury Jupiter ([2]; 28 DAT, 75 g ai/ha): 21 BC %
- Percent rice injury Jupiter ([2]; 28 DAT, 87.5 g ai/ha): 26 B %
- Percent rice injury Jupiter ([2]; 28 DAT, 100 g ai/ha): 56 A %
- Percent red rice control (red rice (Oryza sativa) [3]; 14 DAT, 12.5 g ai/ha): 68 BC %
- Percent red rice control (red rice (Oryza sativa) [3]; 14 DAT, 25 g ai/ha): 70 ABC %
- Percent red rice control (red rice (Oryza sativa) [3]; 14 DAT, 37.5 g ai/ha): 78 AB %
- Percent red rice control (red rice (Oryza sativa) [3]; 14 DAT, 50 g ai/ha): 81 AB %
- Percent red rice control (red rice (Oryza sativa) [3]; 14 DAT, 62.5 g ai/ha): 81 AB %
- Percent red rice control (red rice (Oryza sativa) [3]; 14 DAT, 75 g ai/ha): 84 A %
- Percent red rice control (red rice (Oryza sativa) [3]; 14 DAT, 87.5 g ai/ha): 80 AB %
- Percent red rice control (red rice (Oryza sativa) [3]; 14 DAT, 100 g ai/ha): 84 A %
- Percent red rice control (red rice (Oryza sativa) [3]; 21 DAT, 12.5 g ai/ha): 91 A %
- Percent red rice control (red rice (Oryza sativa) [3]; 21 DAT, 25 g ai/ha): 97 A %
- Percent red rice control (red rice (Oryza sativa) [3]; 21 DAT, 37.5 g ai/ha): 98 A %
- Percent red rice control (red rice (Oryza sativa) [3]; 21 DAT, 50 g ai/ha): 97 A %
- Percent red rice control (red rice (Oryza sativa) [3]; 21 DAT, 62.5 g ai/ha): 97 A %
- Percent red rice control (red rice (Oryza sativa) [3]; 21 DAT, 75 g ai/ha): 98 A %
- Percent red rice control (red rice (Oryza sativa) [3]; 21 DAT, 87.5 g ai/ha): 98 A %
- Percent red rice control (red rice (Oryza sativa) [3]; 21 DAT, 100 g ai/ha): 98 A %
- Percent red rice control (red rice (Oryza sativa) [3]; 28 DAT, 12.5 g ai/ha): 93 A %
- Percent red rice control (red rice (Oryza sativa) [3]; 28 DAT, 25 g ai/ha): 97 A %
- Percent red rice control (red rice (Oryza sativa) [3]; 28 DAT, 37.5 g ai/ha): 100 A %
- Percent red rice control (red rice (Oryza sativa) [3]; 28 DAT, 50 g ai/ha): 99 A %
- Percent red rice control (red rice (Oryza sativa) [3]; 28 DAT, 62.5 g ai/ha): 99 A %
- Percent red rice control (red rice (Oryza sativa) [3]; 28 DAT, 75 g ai/ha): 100 A %
- Percent red rice control (red rice (Oryza sativa) [3]; 28 DAT, 87.5 g ai/ha): 98 A %
- Percent red rice control (red rice (Oryza sativa) [3]; 28 DAT, 100 g ai/ha): 100 A %
- % weed control Dayflower ([4]; 6 g ai/ha): 17%
- % weed control Dayflower ([4]; 12 g ai/ha): 63%
- % weed control Dayflower ([4]; 25 g ai/ha): 67%
- % weed control Dayflower ([4]; 50 g ai/ha): 93%
- % weed control Dayflower ([4]; 100 g ai/ha): 83%
- % weed control Dayflower ([4]; 200 g ai/ha): 90%
- % weed control Barnyardgrass ([5]; 6 g ai/ha): 10%
- % weed control Barnyardgrass ([5]; 12 g ai/ha): 32%
- % weed control Barnyardgrass ([5]; 25 g ai/ha): 35%
- % weed control Barnyardgrass ([5]; 50 g ai/ha): 62%
- % weed control Barnyardgrass ([5]; 100 g ai/ha): 82%
- % weed control Barnyardgrass ([5]; 200 g ai/ha): 100%
- % weed control Crabgrass ([6]; 6 g ai/ha): 70%
- % weed control Crabgrass ([6]; 12 g ai/ha): 100%
- % weed control Crabgrass ([6]; 25 g ai/ha): 100%
- % weed control Crabgrass ([6]; 50 g ai/ha): 100%
- % weed control Crabgrass ([6]; 100 g ai/ha): 100%
- % weed control Crabgrass ([6]; 200 g ai/ha): 100%
- % weed control Signalgrass ([7]; 6 g ai/ha): 23%
- % weed control Signalgrass ([7]; 12 g ai/ha): 23%
- % weed control Signalgrass ([7]; 25 g ai/ha): 57%
- % weed control Signalgrass ([7]; 50 g ai/ha): 90%
- % weed control Signalgrass ([7]; 100 g ai/ha): 98%
- % weed control Signalgrass ([7]; 200 g ai/ha): 100%
- red rice control (words, FIG. 1) (red rice (Oryza sativa) [8]; [10]): controlled
- % weed control Red Rice (red rice (Oryza sativa) [8]; 6 g ai/ha): 23%
- % weed control Red Rice (red rice (Oryza sativa) [8]; 12 g ai/ha): 33%
- % weed control Red Rice (red rice (Oryza sativa) [8]; 25 g ai/ha): 90%
- % weed control Red Rice (red rice (Oryza sativa) [8]; 50 g ai/ha): 100%
- % weed control Red Rice (red rice (Oryza sativa) [8]; 100 g ai/ha): 97%
- % weed control Red Rice (red rice (Oryza sativa) [8]; 200 g ai/ha): 100%
- red rice control (red rice (Oryza sativa) [8]; summary of Table 7 data): controls
- yellow nutsedge control (words, FIG. 1) [9, 10]: controlled
- % weed control Nutsedge ([9]; 6 g ai/ha): 38%
- % weed control Nutsedge ([9]; 12 g ai/ha): 77%
- % weed control Nutsedge ([9]; 25 g ai/ha): 92%
- % weed control Nutsedge ([9]; 50 g ai/ha): 97%
- % weed control Nutsedge ([9]; 100 g ai/ha): 100%
- % weed control Nutsedge ([9]; 200 g ai/ha): 100%

Reference: patent US9635854B2, “Controlling red rice with mesotrione” (FMC Corporation, priority 2014, dated 2017)
